pIC50: −log10 of the molar value.
Test system: 439559-082-T-J2-PDC spheroids viability
Assay: Anticancer human tumor 439559-082-T-J2-PDC patient-derived colon adenocarcinoma cell line growth inhibition [GQUAD]
Settings: for pIC50: curve of first compound; for viability, T/C: stronger effect = lower value
How it was run: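 Multi-cell-type spheroids of tumor cells with HUVEC and mesenchymal stem cells, treated with drug combinations. Concentrations descend in half-log steps from near clinical Cmax, or from 10 microM where Cmax is unknown; viability read-out.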
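Also: spheroids exposed to the agents for 7 days before readout.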
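For viability, T/C in this document: percent of luminescence signal in DMSO vehicle wells taken as 100% viability.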

Compound: Cc1cccc(N(C)C(=O)C2C(O)CCN2c2nc(C)cc(C(F)(F)F)c2C#N)c1 (configuration not stated) + Cc1cnc(CNC(=O)c2c(=O)c3ccc(N4CCCN(C)CC4)nc3n3c2sc2ccccc23)cn1
- pIC50 (second compound 0.0316 µM): < 5.00
- pIC50 (second compound 0.1 µM): < 5.00
- pIC50 (second compound 0.316 µM): < 5.00
- pIC50 (second compound 1 µM): < 5.00
- pIC50 (second compound 3.16 µM): < 5.00
- pIC50 (second compound 10 µM): < 5.00
- viability, T/C (second compound 0.0316 µM, first compound 0.0316 µM): 101%
- viability, T/C (second compound 0.0316 µM, first compound 0.1 µM): 95.6%
- viability, T/C (second compound 0.0316 µM, first compound 0.316 µM): 82.5%
- viability, T/C (second compound 0.0316 µM, first compound 1 µM): 99%
- viability, T/C (second compound 0.0316 µM, first compound 3.16 µM): 95.2%
- viability, T/C (second compound 0.0316 µM, first compound 10 µM): 101%
- viability, T/C (second compound 0.1 µM, first compound 0.0316 µM): 117%
- viability, T/C (second compound 0.1 µM, first compound 0.1 µM): 93.5%
- viability, T/C (second compound 0.1 µM, first compound 0.316 µM): 90.2%
- viability, T/C (second compound 0.1 µM, first compound 1 µM): 85.4%
- viability, T/C (second compound 0.1 µM, first compound 3.16 µM): 93.3%
- viability, T/C (second compound 0.1 µM, first compound 10 µM): 92.6%
- viability, T/C (second compound 0.316 µM, first compound 0.0316 µM): 90.8%
- viability, T/C (second compound 0.316 µM, first compound 0.1 µM): 86.3%
- viability, T/C (second compound 0.316 µM, first compound 0.316 µM): 79.3%
- viability, T/C (second compound 0.316 µM, first compound 1 µM): 82.2%
- viability, T/C (second compound 0.316 µM, first compound 3.16 µM): 92.2%
- viability, T/C (second compound 0.316 µM, first compound 10 µM): 84.3%
- viability, T/C (second compound 1 µM, first compound 0.0316 µM): 83.1%
- viability, T/C (second compound 1 µM, first compound 0.1 µM): 81.2%
- viability, T/C (second compound 1 µM, first compound 0.316 µM): 74.2%
- viability, T/C (second compound 1 µM, first compound 1 µM): 76.3%
- viability, T/C (second compound 1 µM, first compound 3.16 µM): 80.5%
- viability, T/C (second compound 1 µM, first compound 10 µM): 74.8%
- viability, T/C (second compound 3.16 µM, first compound 0.0316 µM): 73.4%
- viability, T/C (second compound 3.16 µM, first compound 0.1 µM): 72.1%
- viability, T/C (second compound 3.16 µM, first compound 0.316 µM): 71.9%
- viability, T/C (second compound 3.16 µM, first compound 1 µM): 69.3%
- viability, T/C (second compound 3.16 µM, first compound 3.16 µM): 72.7%
- viability, T/C (second compound 3.16 µM, first compound 10 µM): 66.3%
- viability, T/C (second compound 10 µM, first compound 0.0316 µM): 72.1%
- viability, T/C (second compound 10 µM, first compound 0.1 µM): 70.2%
- viability, T/C (second compound 10 µM, first compound 0.316 µM): 68.5%
- viability, T/C (second compound 10 µM, first compound 1 µM): 67.7%
- viability, T/C (second compound 10 µM, first compound 3.16 µM): 72.5%
- viability, T/C (second compound 10 µM, first compound 10 µM): 63%

Reference: PubChem BioAssay AID2060510 (Molecular Pharmacology Branch, DTP, NCI, 2025)
